For 3 molecules, IC50 results are on record in ChEMBL document CHEMBL1148913, “Celogenamide A, a new cyclic peptide from the seeds of Celosia argentea” (J Nat Prod, 2004).

By IC50 is commonly meant the point on the concentration scale where inhibition reaches its midpoint.

The experiment can be described thus: Inhibition of tubulin polymerization assessed as turbidity by microtubule assembly assay.

Take `COC(=O)[C@@H]1Cc2cn(c3ccccc23)[C@@H](NC(=O)[C@H](Cc2ccc(O)cc2)NC(=O)[C@@H]2CCCN2C(=O)[C@@H]2CCC(=O)N2)C(=O)N[C@@H](C(C)C)C(=O)NCC(=O)N[C@@H](CO)C(=O)N1` [LYCLUMIN A]: the IC50 is above 100 µM.
On to `COC(=O)[C@@H]1Cc2cn(c3ccccc23)[C@@H](NC(=O)[C@H](Cc2ccc(O)cc2)NC(=O)[C@@H]2CCCN2C(=O)[C@@H]2CCC(=O)N2)C(=O)N[C@@H](C(C)C)C(=O)N[C@@H](Cc2ccccc2)C(=O)N[C@@H](CO)C(=O)N1` [LYCIUMIN C], for which the IC50 is above 100 µM.
Take `CC(C)[C@@H]1NC(=O)[C@H](NC(=O)[C@H](Cc2ccc(O)cc2)NC(=O)[C@@H]2CCCN2C(=O)[C@@H]2CCC(=O)N2)n2cc(c3ccccc32)C[C@@H](C(=O)N[C@@H](CCCCN)C(=O)O)NC(=O)[C@H](CO)NC(=O)[C@H](Cc2ccccc2)NC1=O` [CELOGENAMIDE A]: the IC50 is above 100 µM.
